We go through twelve compounds from ChEMBL document CHEMBL1201862, “PubChem BioAssay data set” (2004).

Active and inactive are the calls of the source.

In assay [1] the target is T1, Carboxy-terminal domain RNA polymerase II polypeptide A small phosphatase 1 (Homo sapiens, UniProt Q9GZU7).
T1 sequence (Q9GZU7 whole entry): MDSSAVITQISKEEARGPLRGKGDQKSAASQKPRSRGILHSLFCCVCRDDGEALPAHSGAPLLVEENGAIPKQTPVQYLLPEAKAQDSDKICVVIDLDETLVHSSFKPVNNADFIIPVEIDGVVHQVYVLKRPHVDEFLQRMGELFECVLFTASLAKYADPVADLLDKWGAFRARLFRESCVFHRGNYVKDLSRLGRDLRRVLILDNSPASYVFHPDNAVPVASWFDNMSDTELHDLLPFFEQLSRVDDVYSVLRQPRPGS
Description: inhibitors of CTDSP1, concentration-response testing, biochemical assay, absorbance-based, actives from ultra-high-throughput screening (AID 540297). It counts as functional.

The target of assay [2] is T2, Low molecular weight phosphotyrosine protein phosphatase (Homo sapiens, UniProt P24666).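 Also: Dose-response confirmation assay measuring inhibition of LMPTP enzyme activity by fluorescence intensity read-out.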
T2 sequence (P24666 whole entry): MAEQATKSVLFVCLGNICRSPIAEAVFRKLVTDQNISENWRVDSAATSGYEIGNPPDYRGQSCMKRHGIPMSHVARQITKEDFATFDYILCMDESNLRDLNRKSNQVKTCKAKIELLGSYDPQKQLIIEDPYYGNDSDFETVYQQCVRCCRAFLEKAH
Format: functional. The conditions noted are these: read-out: IC50_Mean.

Assay [3] in a line: Fluorescence-based cell-based high throughput dose response assay for inhibitors of the interaction of nucleotide-binding oligomerization domain containing 2 (NOD2) and the receptor-interacting serine-threonine kinase 2 (RIPK2). Format: functional. The note with it: Homo sapiens.
For another assay, the target named is Beta Lactamase (Pseudomonas aeruginosa, UniProt Q932Y6). Description: beta-lactamase reporter inhibitor potency, dose response, artefact control for NOD2-RIPK2 interaction inhibitor project, BLA reporter cells, FRET fluorescence (AID 651552). Format: functional, cell-based.
Chain of Beta Lactamase (Q932Y6 whole entry): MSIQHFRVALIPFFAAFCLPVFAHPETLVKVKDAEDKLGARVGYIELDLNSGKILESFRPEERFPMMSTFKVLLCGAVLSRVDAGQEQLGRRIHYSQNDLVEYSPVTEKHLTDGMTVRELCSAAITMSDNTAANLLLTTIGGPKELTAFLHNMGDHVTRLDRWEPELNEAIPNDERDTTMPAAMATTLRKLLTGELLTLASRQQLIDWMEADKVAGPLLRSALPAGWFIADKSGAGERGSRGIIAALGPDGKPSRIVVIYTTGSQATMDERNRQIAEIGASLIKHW
For assay [4], the target named is 26S proteasome non-ATPase regulatory subunit 14 (Homo sapiens, UniProt O00487). Put plainly: inhibition of proteasome subunit RPN11 – biochemical, fluorescence polarization, uHTS hits, confirmation (AID 602368). Format: functional. A general note: Polarisation of emitted light reports the rotation of a fluorescent probe.
Chain of 26S proteasome non-ATPase regulatory subunit 14 (O00487 whole entry): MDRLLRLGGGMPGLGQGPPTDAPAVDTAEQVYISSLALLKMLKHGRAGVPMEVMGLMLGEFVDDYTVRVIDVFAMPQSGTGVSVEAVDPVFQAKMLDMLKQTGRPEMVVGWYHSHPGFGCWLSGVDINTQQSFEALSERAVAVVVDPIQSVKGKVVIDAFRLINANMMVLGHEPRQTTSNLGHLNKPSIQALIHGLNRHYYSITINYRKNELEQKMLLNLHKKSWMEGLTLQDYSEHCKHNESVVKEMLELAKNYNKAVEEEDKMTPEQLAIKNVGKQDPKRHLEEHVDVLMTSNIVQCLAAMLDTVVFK
A further assay addresses Prothrombin (Bos taurus, UniProt P00735). Put plainly: thrombin inhibition, dose response, biochemical, fluorescence polarization, uHTS hits (AID 602369). Format: functional.
Assay [5] can be described thus: cytotoxicity toward NIH3T3 fibroblasts, dose response, counter-screen, cell-based, ATP luminescence, mouse fibroblasts (AID 2010).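 Also: cells exposed to compound for about 90 hours before reading.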 It counts as functional. Background: Counterscreens check selectivity or assay interference.
Assay [6] concerns the target 72 kDa type IV collagenase (Homo sapiens, UniProt P08253). Put plainly: Dose Response validation of uHTS RPN11 inhibitor hits using a MMP-2 Fluorescence assay. Format: functional.
Assay [7] in a line: inhibitors of intracellular T. cruzi replication, confirmation, NIH3T3 host cells, beta-gal luminescence (AID 2044).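 Also: intracellular parasites grown in NIH/3T3 mouse fibroblasts as host cells; luminescent beta-galactosidase reporter signal from transgenic T. cruzi replicating inside host cells; inhibitors lower the luminescence signal.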 It counts as functional, cell-based.
Assay [8] concerns the target T3, Adenosylmethionine-8-amino-7-oxononanoate aminotransferase (Mycobacterium tuberculosis, UniProt P9WQ81).
T3 sequence (P9WQ81 whole entry): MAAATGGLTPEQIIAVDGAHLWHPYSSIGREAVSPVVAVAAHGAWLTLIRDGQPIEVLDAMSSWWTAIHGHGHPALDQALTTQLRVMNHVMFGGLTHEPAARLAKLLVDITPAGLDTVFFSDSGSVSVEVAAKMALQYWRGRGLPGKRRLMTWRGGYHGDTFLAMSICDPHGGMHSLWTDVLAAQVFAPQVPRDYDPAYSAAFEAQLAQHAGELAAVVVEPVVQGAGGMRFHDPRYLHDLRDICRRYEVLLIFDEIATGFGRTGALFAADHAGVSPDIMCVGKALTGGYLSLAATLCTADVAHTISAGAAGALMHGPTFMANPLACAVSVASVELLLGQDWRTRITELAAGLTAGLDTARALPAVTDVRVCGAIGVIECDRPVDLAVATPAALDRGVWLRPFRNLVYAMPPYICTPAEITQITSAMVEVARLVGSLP
Description: Mycobacterium tuberculosis BioA enzyme inhibitor Measured in Biochemical System Using Plate Reader - 2163-02_Inhibitor_Dose_CherryPick_Activity. It counts as functional, Mycobacterium tuberculosis UT205.

Assay [9] has as its target T4, Long-chain-fatty-acid--AMP ligase FadD28 (Mycobacterium tuberculosis, UniProt P9WQ59).
T4 sequence (P9WQ59 whole entry): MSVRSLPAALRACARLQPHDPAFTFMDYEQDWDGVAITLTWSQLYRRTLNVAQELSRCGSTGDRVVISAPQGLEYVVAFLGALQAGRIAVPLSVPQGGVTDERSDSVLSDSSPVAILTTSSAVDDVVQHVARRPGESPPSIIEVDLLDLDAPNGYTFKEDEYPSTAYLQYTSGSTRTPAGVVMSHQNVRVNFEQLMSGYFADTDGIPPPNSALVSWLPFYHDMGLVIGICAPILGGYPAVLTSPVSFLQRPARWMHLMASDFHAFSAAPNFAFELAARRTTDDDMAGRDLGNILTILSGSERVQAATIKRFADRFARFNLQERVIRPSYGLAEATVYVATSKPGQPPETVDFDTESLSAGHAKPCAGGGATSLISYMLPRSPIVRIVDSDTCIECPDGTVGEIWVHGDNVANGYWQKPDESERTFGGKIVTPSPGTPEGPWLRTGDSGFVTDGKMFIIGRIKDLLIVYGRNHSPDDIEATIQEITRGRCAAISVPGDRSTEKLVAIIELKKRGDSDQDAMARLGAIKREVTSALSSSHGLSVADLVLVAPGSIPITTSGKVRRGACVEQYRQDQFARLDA
Description: Fluorescence polarization aasay to screen for inhibitors that compete for the binding of FadD28 to a bisubstrate Measured in Biochemical System Using Plate Reader - 2147-01_Inhibitor_Dose_CherryPick_Activity. It counts as functional, Mycobacterium tuberculosis H37Rv.

For assay [10], the target named is DNA (cytosine-5)-methyltransferase 1 (Homo sapiens, UniProt P26358). Put plainly: DNMT1 methyltransferase inhibitors, confirmation, biochemical, fluorescent molecular beacon (AID 602386). Format: functional.
Chain of DNA (cytosine-5)-methyltransferase 1 (P26358 whole entry): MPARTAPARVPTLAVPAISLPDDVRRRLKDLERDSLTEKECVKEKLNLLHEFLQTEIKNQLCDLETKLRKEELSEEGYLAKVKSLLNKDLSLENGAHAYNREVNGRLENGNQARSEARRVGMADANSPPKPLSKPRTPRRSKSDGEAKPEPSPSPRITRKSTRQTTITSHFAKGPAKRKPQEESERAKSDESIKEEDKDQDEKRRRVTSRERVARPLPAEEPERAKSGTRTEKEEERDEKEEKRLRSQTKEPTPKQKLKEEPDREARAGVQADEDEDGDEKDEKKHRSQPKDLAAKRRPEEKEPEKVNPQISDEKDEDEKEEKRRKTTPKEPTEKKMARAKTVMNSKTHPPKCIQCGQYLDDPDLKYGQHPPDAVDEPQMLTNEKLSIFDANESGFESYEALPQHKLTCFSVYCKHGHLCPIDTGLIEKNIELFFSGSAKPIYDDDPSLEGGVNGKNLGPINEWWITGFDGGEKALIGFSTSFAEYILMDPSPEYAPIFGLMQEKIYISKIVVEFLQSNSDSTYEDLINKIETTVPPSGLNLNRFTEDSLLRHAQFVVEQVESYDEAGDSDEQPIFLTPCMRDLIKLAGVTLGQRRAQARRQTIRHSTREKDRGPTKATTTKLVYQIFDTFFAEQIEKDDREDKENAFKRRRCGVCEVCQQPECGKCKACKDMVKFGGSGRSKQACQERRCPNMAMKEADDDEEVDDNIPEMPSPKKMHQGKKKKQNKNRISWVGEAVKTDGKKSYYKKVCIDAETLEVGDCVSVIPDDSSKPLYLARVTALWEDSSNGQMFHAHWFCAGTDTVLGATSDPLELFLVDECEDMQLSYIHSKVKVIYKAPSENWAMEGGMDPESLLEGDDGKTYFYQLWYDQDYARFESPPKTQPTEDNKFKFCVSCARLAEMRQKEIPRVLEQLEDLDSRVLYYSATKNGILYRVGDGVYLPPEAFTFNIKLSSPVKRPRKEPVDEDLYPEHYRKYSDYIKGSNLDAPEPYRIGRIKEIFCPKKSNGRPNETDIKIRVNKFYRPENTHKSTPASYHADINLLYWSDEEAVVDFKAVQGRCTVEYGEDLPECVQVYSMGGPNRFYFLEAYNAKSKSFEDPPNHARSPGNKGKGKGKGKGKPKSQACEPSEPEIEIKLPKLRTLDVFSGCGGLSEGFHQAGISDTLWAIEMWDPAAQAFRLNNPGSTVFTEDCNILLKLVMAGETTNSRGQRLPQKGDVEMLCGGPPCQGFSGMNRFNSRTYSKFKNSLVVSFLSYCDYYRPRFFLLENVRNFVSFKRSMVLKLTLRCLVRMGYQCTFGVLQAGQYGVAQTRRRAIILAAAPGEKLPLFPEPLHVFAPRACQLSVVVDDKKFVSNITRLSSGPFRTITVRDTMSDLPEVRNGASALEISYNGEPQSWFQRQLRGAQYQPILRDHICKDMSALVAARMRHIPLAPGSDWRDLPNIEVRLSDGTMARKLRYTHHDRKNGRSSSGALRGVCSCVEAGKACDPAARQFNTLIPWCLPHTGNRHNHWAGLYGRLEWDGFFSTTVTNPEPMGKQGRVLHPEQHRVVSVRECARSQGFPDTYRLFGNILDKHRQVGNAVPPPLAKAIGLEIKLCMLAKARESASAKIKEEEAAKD
In assay [11] the target is T5, Sentrin-specific protease 7 (Homo sapiens, UniProt Q9BQF6).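 Also: Luminescence-based dose-response confirmation of ultra-high-throughput screening hits, measuring inhibition of SENP7.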
T5 sequence (Q9BQF6 whole entry): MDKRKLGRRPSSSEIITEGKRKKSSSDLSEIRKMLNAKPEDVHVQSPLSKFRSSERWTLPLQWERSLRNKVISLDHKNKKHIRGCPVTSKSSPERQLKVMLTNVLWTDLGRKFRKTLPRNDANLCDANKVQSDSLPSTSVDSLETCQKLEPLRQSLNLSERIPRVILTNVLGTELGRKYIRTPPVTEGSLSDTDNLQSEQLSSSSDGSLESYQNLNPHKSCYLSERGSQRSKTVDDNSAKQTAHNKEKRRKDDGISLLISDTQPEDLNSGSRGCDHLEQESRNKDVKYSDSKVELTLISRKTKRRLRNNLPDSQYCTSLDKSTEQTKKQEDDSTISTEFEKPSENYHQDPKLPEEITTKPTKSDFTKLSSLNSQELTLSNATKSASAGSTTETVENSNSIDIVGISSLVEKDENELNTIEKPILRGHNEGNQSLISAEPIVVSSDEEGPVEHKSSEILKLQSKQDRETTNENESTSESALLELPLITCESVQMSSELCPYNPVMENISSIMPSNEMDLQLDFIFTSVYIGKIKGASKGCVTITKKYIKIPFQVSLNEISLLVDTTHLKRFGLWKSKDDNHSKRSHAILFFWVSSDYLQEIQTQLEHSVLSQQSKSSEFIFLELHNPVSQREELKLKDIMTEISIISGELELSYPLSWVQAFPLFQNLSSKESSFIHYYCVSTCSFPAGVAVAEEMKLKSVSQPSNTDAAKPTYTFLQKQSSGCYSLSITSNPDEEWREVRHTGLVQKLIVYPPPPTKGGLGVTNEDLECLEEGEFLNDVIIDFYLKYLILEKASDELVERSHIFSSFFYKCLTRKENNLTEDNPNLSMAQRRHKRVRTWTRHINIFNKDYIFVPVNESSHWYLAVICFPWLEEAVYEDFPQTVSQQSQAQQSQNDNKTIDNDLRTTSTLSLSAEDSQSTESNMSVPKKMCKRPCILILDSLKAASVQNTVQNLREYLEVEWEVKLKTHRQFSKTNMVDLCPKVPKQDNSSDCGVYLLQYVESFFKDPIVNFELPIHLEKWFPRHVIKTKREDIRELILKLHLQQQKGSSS
It counts as functional.

Assay [12] concerns the target T6, Sentrin-specific protease 8 (Homo sapiens, UniProt Q96LD8).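 Also: luminescence read-out of SENP8 inhibition, dose-response confirmation following an ultra-high-throughput screen.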
T6 sequence (Q96LD8 whole entry): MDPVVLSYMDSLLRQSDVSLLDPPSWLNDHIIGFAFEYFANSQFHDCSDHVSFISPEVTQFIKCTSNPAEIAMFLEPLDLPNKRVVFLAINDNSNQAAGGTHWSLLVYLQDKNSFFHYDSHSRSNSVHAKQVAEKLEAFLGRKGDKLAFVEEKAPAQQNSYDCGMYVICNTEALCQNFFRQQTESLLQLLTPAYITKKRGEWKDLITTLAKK
It counts as functional.

Assay [13] deals with T7, Sentrin-specific protease 6 (Homo sapiens, UniProt Q9GZR1).
T7 sequence (Q9GZR1 whole entry): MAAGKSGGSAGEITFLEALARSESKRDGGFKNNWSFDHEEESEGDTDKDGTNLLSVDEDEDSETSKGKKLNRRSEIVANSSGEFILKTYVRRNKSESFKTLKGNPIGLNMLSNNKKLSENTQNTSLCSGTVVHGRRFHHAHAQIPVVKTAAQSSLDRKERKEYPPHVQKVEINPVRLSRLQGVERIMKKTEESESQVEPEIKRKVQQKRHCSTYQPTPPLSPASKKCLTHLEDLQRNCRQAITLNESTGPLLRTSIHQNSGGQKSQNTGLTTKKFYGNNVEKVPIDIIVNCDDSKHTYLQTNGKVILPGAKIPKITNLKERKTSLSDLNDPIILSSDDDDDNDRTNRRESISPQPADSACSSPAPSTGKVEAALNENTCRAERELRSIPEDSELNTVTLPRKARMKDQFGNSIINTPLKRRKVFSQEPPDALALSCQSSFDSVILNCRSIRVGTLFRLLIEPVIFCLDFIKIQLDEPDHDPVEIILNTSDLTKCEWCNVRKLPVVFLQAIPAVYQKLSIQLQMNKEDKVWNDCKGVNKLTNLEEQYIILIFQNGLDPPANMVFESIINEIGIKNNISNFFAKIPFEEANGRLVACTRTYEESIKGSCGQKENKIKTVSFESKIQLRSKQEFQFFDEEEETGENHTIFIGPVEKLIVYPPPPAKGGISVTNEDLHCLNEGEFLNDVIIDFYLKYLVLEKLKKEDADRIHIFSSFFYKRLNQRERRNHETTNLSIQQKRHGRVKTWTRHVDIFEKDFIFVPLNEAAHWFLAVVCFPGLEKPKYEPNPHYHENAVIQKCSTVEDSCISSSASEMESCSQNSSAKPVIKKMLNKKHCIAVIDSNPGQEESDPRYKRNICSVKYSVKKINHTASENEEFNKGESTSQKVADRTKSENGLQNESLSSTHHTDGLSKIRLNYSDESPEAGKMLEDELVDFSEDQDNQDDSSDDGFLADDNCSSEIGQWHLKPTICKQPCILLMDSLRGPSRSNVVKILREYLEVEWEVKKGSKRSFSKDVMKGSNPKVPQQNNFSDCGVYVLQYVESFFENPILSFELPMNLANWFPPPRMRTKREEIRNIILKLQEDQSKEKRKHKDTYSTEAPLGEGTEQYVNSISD
It counts as functional.

Another assay concerns the target T8, Caspase-3 (Homo sapiens, UniProt P42574).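 Also: Dose-response selectivity test against caspase-3 for candidate inhibitors of sentrin-specific proteases (SENPs).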
T8 sequence (P42574 whole entry): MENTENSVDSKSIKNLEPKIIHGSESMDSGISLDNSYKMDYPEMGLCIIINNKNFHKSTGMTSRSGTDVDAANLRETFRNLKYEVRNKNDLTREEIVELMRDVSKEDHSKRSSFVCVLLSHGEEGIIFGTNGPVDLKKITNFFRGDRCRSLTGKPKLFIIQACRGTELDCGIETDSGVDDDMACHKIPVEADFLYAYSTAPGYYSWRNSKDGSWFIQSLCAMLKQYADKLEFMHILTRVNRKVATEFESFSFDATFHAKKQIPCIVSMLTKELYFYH
It counts as functional.

Chain of 72 kDa type IV collagenase (P08253 whole entry): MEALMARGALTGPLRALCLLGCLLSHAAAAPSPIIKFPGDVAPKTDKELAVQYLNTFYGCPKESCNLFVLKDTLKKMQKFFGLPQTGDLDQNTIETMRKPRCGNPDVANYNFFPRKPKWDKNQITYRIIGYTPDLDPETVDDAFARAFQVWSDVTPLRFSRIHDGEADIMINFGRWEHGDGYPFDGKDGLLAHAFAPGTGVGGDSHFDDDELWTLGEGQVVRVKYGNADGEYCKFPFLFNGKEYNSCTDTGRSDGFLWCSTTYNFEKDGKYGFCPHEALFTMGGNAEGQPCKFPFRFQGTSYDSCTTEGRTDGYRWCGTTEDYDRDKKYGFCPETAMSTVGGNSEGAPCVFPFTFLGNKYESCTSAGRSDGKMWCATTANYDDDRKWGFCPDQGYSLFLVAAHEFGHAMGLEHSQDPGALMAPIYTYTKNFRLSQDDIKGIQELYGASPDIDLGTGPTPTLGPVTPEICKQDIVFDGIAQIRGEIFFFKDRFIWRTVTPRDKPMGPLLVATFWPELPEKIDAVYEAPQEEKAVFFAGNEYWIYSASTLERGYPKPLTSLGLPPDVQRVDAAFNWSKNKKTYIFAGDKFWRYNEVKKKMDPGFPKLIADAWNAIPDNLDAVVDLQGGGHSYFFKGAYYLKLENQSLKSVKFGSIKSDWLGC

Regarding `O=C(NCc1cccc(CNC(=O)C(=O)NCc2ccco2)c1)C(=O)NCc1ccco1`, the values for the IC50 in [1] and in assay [2] were > 80 µM (inactive) and 6.32 µM (active), respectively.
Take `O=C(CN1CCN(S(=O)(=O)c2ccc(Br)cc2)CC1)N/N=C/c1ccc(Cl)c([N+](=O)[O-])c1`: the IC50 was 1.83 µM (active) in assay [3] and 48.7 µM (inactive) on Beta Lactamase.
Regarding `C/N=c1\scc(-c2cc(OC)ccc2OC)n1/N=C/c1c(C)[nH]c2ccccc12`, the values for the IC50 (in assay [4]; at Prothrombin; in assay [6]) were 23.8 µM (active), 21.1 µM (active) and > 100 µM (inactive), respectively. The EC50 – broadly, the concentration that produces a half-maximal response – was > 60 µM (not active) in assay [5] and 1.64 µM (active) in assay [7].
In the case of `C=CCn1cc(/C=N/NC(=O)COc2cccc3cccnc23)c2ccccc21`, the values for the IC50 (in [4]; on Prothrombin; in [6]) were 27.8 µM (active), 39 µM (active) and > 100 µM (inactive), respectively.
In the case of `O=C(Nc1ccc(Cl)c(-c2nc3ccccc3[nH]2)c1)c1cccnc1`, the AC50 (in general, the concentration at which the activity in the assay is half-maximal) in assay [8] was 0.788 µM (active).
`O=C(O)C(c1ccccc1)N1C(=O)/C(=C\c2ccc(-c3ccccc3Cl)o2)SC1=S` (stereo not given): the AC50 in [9] is 15.6 µM (active). Besides, in assay [10], the IC50 was 4.27 µM (active).
In the case of `CCOC(=O)c1ccc(Nc2cnc3ccccc3n2)cc1`, the IC50 in [11] is 6.72 µM (active); in assay [12] it was > 100 µM (inactive); in [13], > 100 µM (inactive); on Caspase-3, 64.6 µM (active).
Regarding `O=C(Nc1ncc2c(n1)CC(c1ccccc1)CC2=O)c1ccco1` (stereo not given), the AC50 in assay [8] is 0.201 µM (active).
As for `Cc1ccsc1/C=N/n1c(S)nnc1-c1cc(-c2ccccc2)[nH]n1`, the IC50 in assay [4] was 21.1 µM (active); on Prothrombin it was 77.2 µM (active); in assay [6] it was > 100 µM (inactive).
Turning to `N=C(N)NCCCS(=O)(=O)Nc1ccc(Nc2c3ccccc3nc3cc([N+](=O)[O-])ccc23)cc1`, the figures for the IC50 in assay [10] and in assay [2] were 6.83 µM (active) and 57 µM (inactive), respectively.
As to `O=[N+]([O-])c1ccc(N/N=N/c2ccccc2)cc1`, the IC50 in assay [11] was 9.64 µM (active); in [12], 75.3 µM (active); in [13], 46.5 µM (active); at Caspase-3, 45 µM (active).
On to `COc1cc(-c2nnc(S)n2-c2cccc(C(F)(F)F)c2)cc(OC)c1OC`, for which the AC50 in assay [8] was 10.6 µM (active).
